“Also recorded” adds a separate entry of the source. Counter-ions that a name gives are not always drawn.
Tests used:
[1] = Solubility test in pure water; format: physicochemical; conditions: for Solubility: pure water, 25° C., 5 mg sample; for water solubility: summary statement in description
Description: 5 mg of each of the free base and salts of the morpholine derivative in Examples 1-7 was added with pure water gradually at 25° C., until all the samples were completely dissolved. The solubility of each sample was calculated based on the actual weight of the sample and the amount of water.

[2] = Hygroscopicity test (weight change as humidity increased from 20% to 80%); format: physicochemical; conditions: for Weight change in 20%-80% humidity: 5 mg sample, humidity increased from 20% to 80%; for Level (hygroscopicity): 20%-80% humidity
Description: 5 mg of each of the salts of the morpholine derivative in the examples was measured for their weight change as the humidity was increased from 20% to 80%.

[3] = Stability test under oxidation condition; format: physicochemical; conditions: for Types of new impurities (type) / The decomposed amount (%): closed container with hydrogen peroxide urea, 40° C., 12 days; for The decomposed amount (%): chiral HPLC vs day 0; for stability under oxidation condition in words: text statement
Description: The stability test was conducted on 10 mg of each of the free base and salts of the morpholine derivative in the examples under oxidation condition.

[4] = Stability test under light condition; format: physicochemical; conditions: for stability under light condition in words: text statement; for The decomposed amount (%): light box 4500 Lx ± 500 Lx, 25° C., 12 days, chiral HPLC vs day 0
Description: The stability test was carried out on 10 mg of each of the free base, salts of the morpholine derivative in Examples 1-6 under light condition.

[5] = Dynamic Vapor Sorption Analysis (DVS); format: physicochemical; conditions: for hygroscopicity in words: text statement
Description: Dynamic Vapor Sorption Analysis (DVS) data was taken from a TA Instruments Q5000 TGA, instrument control software was Thermal Advantage, and analysis software was Universal Analysis. Generally, 1 to 10 mg of the sample was placed in a platinum crucible, the TA software generally recorded the weight change of the sample as the relative humidity changed from 0% to 80% to 0%. According to the specific conditions of the sample, different adsorption and desorption steps might also be applied to the sample.

[6] = background statement on prior-art free base; cited from earlier work
[7] = background statement on prior-art free base; cited from earlier work; remark: listed apart in the source

| SMILES | Solubility [1] | water solubility [1] | Weight change in 20%-80% humidity [2] | Types of new impurities (type) [3] | The decomposed amount (%) [3] | stability under light condition in words [4] | hygroscopicity in words [5] | Level (hygroscopicity) [2] | The decomposed amount (%) [4] | DVS weight change in a range of 20%-80% humidity [5] | further results |
| --- | --- | --- | --- | --- | --- | --- | --- | --- | --- | --- | --- |
| COC(=O)NCCCn1nc([C@@H](C)N(C(=O)[C@H]2CNCCO2)C2CC2)c2ccc(C)nc21 [morpholine derivative acetate] | 150 to 300 mg/mL | 150 to 300 mg/mL | 21.30% | 5 type | 95.71% | good thermal stability | deliquesced |  |  |  | DVS weight loss during the drying stage ([5]; 0% of the initial humidity): about 5%; DVS moisture absorbed, amount of its weight ([5]; 20% to 60% humidity): 6.4%; DVS moisture absorbed, amount of its weight ([5]; 90% of humidity): 40% |
| COC(=O)NCCCn1nc([C@@H](C)N(C(=O)[C@H]2CNCCO2)C2CC2)c2ccc(C)nc21 [morpholine derivative free base, methyl (3-(3-((R)-1-((R)—N-cyclopropylmorpholine-2-carboxamido)ethyl)-6-methyl-1H-pyrazolo[3,4-b]pyridin-1-yl)n-propyl)carbamate, reference compound] | 5 to 10 mg/mL |  |  | 6 type | 38.0% |  |  | difficult | 100% |  | water solubility in words [6]: poor water solubility; oxidation stability in words [7]: relatively easy to be oxidized |
| COC(=O)NCCCn1nc([C@@H](C)N(C(=O)[C@H]2CNCCO2)C2CC2)c2ccc(C)nc21 [morpholine derivative hydrochloride] | >500 mg/mL | > 500 mg/mL | 31.80% | 6 type | 63.53% | good thermal stability | deliquescent; also recorded: very hydroscopic | Very easy | 5.27% |  | DVS water absorbed in 0% to 60% RH ([5]; 0% to 60% RH): 15% |
| COC(=O)NCCCn1nc([C@@H](C)N(C(=O)[C@H]2CNCCO2)C2CC2)c2ccc(C)nc21 [morpholine derivative malate] | 100 mg/mL | ~100 mg/mL | 1.70% | 2 type | 8.46% | better stability |  |  | 2.05% | about 1.2% | stability under oxidation condition in words [3]: better stability |
| COC(=O)NCCCn1nc([C@@H](C)N(C(=O)[C@H]2CNCCO2)C2CC2)c2ccc(C)nc21 [morpholine derivative naphthalene disulfonate] | >500 mg/mL | > 500 mg/mL |  | 7 type | 51.47% | good thermal stability | very hydroscopic | Very easy | 12.58% |  |  |
| COC(=O)NCCCn1nc([C@@H](C)N(C(=O)[C@H]2CNCCO2)C2CC2)c2ccc(C)nc21 [morpholine derivative tartrate crystal form A] | 100 mg/mL |  | 1.50% | 6 type | 17.93% |  | hardly hydroscopic | difficult | 2.14% | about 1.5% | stability under light condition in words ([4]; listed as crystal form A): equivalent stability; hygroscopicity in words ([5]; listed as crystal form A): hardly hydroscopic |
| COC(=O)NCCCn1nc([C@@H](C)N(C(=O)[C@H]2CNCCO2)C2CC2)c2ccc(C)nc21 [morpholine derivative tartrate crystal form B] | 150 to 300 mg/mL |  | 6.58% | 4 type | 3.24% |  | relatively hydroscopic | easy | 3.61% | about 7% | stability under oxidation condition in words ([3]; listed as crystal form B): more stable than crystal form A; stability under light condition in words ([4]; listed as crystal form B): equivalent stability; hygroscopicity in words ([5]; listed as crystal form B): relatively hydroscopic |
| COC(=O)NCCCn1nc([C@@H](C)N(C(=O)[C@H]2CNCCO2)C2CC2)c2ccc(C)nc21 [morpholine derivative tartrate dihydrate] | 100 mg/mL |  | 9.05% |  |  |  | relatively hydroscopic | easy |  |  | DVS weight change in a range of 0%-80% humidity ([5]; 0%-80% humidity): about 11.06% |
| COC(=O)NCCCn1nc([C@@H](C)N(C(=O)[C@H]2CNCCO2)C2CC2)c2ccc(C)nc21 [morpholine derivative tartrate] |  | 50 to 300 mg/mL |  |  |  |  |  |  |  |  |  |

— patent publication US10519150B2, “Salts of morpholine derivative, crystal forms thereof, processes for producing the same, pharmaceutical compositions including the same, and use thereof” (SHANGHAI PHARMACEUTICALS HOLDING CO., LTD., priority 2015, dated 2019)
